ChEMBL document CHEMBL3044654, “Sensitivity of four isolates of Clonostachys rosea to pesticides used in the strawberry crop in Brazil” (2012)

Assays:
Type in all cases: functional
[1] = tested on: Clonostachys rosea; assay: Toxicity against Bionectria ochroleuca I62 assessed as inhibition of mycelial growth at 0.003 to 0.020 mg/ml measured every 24 hr intervals over 192 hr
[2] = tested on: Clonostachys rosea; assay: Toxicity against Bionectria ochroleuca I60 assessed as inhibition of mycelial growth at 0.003 to 0.020 mg/ml measured every 24 hr intervals over 192 hr
[3] = tested on: Clonostachys rosea; assay: Toxicity against Bionectria ochroleuca I61 assessed as inhibition of mycelial growth at 0.003 to 0.020 mg/ml measured every 24 hr intervals over 192 hr
[4] = tested on: Clonostachys rosea; assay: Toxicity against Bionectria ochroleuca assessed as inhibition of mycelial growth at 0.003 to 0.020 ug/ml measured every 24 hr intervals over 192 hr
[5] = tested on: Clonostachys rosea; assay: Toxicity against Bionectria ochroleuca I19 assessed as inhibition of mycelial growth at 0.003 to 0.020 mg/ml measured every 24 hr intervals over 192 hr
[6] = tested on: Clonostachys rosea; assay: Toxicity against Bionectria ochroleuca assessed as inhibition of conidial germination at 0.003 to 0.020 ug/ml measured every 24 hr intervals over 192 hr
[7] = tested on: Clonostachys rosea; assay: Toxicity against Bionectria ochroleuca assessed as inhibition of mycelial growth at 0.3 to 1.8 mg/ml measured every 24 hr intervals over 192 hr
[8] = tested on: Clonostachys rosea; assay: Toxicity against Bionectria ochroleuca I61 assessed as inhibition of mycelial growth at 0.3 to 1.8 mg/ml measured every 24 hr intervals over 192 hr
[9] = tested on: Clonostachys rosea; assay: Toxicity against Bionectria ochroleuca I62 assessed as inhibition of mycelial growth at 0.3 to 1.8 mg/ml measured every 24 hr intervals over 192 hr
[10] = tested on: Clonostachys rosea; assay: Toxicity against Bionectria ochroleuca I60 assessed as inhibition of mycelial growth at 0.3 to 1.8 mg/ml measured every 24 hr intervals over 192 hr
[11] = tested on: Clonostachys rosea; assay: Toxicity against Bionectria ochroleuca I19 assessed as inhibition of mycelial growth at 0.3 to 1.8 mg/ml measured every 24 hr intervals over 192 hr
[12] = tested on: Clonostachys rosea; assay: Toxicity against Bionectria ochroleuca assessed as inhibition of conidial germination at 0.3 to 1.8 mg/ml measured every 24 hr intervals over 192 hr
[13] = tested on: Clonostachys rosea; assay: Toxicity against Bionectria ochroleuca I61 assessed as inhibition of mycelial growth at 0.048 to 0.292 mg/ml measured every 24 hr intervals over 192 hr
[14] = tested on: Clonostachys rosea; assay: Toxicity against Bionectria ochroleuca I62 assessed as inhibition of mycelial growth at 0.048 to 0.292 mg/ml measured every 24 hr intervals over 192 hr
[15] = tested on: Clonostachys rosea; assay: Toxicity against Bionectria ochroleuca I62 assessed as inhibition of conidial germination at 0.048 to 0.292 mg/ml measured every 24 hr intervals over 192 hr
[16] = tested on: Clonostachys rosea; assay: Toxicity against Bionectria ochroleuca I61 assessed as inhibition of conidial germination at 0.048 to 0.292 mg/ml measured every 24 hr intervals over 192 hr
[17] = tested on: Clonostachys rosea; assay: Toxicity against Bionectria ochroleuca assessed as inhibition of mycelial growth at 0.048 to 0.292 ug/ml measured every 24 hr intervals over 192 hr
[18] = tested on: Clonostachys rosea; assay: Toxicity against Bionectria ochroleuca I19 assessed as inhibition of conidial germination at 0.048 to 0.292 mg/ml measured every 24 hr intervals over 192 hr
[19] = tested on: Clonostachys rosea; assay: Toxicity against Bionectria ochroleuca I19 assessed as inhibition of mycelial growth at 0.048 to 0.292 mg/ml measured every 24 hr intervals over 192 hr
[20] = tested on: Clonostachys rosea; assay: Toxicity against Bionectria ochroleuca I60 assessed as inhibition of mycelial growth at 0.048 to 0.292 mg/ml measured every 24 hr intervals over 192 hr
[21] = tested on: Clonostachys rosea; assay: Toxicity against Bionectria ochroleuca I60 assessed as inhibition of conidial germination at 0.048 to 0.292 mg/ml measured every 24 hr intervals over 192 hr
[22] = tested on: Clonostachys rosea; assay: Toxicity against Bionectria ochroleuca assessed as inhibition of conidial germination at 0.048 to 0.292 ug/ml measured every 24 hr intervals over 192 hr
[23] = tested on: Clonostachys rosea; assay: Toxicity against Bionectria ochroleuca assessed as inhibition of conidial germination at 0.001 to 0.009 ug/ml
[24] = tested on: Clonostachys rosea; assay: Toxicity against Bionectria ochroleuca assessed as inhibition of mycelial growth at 0.001 to 0.009 ug/ml
[25] = tested on: Clonostachys rosea; assay: Toxicity against Bionectria ochroleuca assessed as inhibition of mycelial growth at 0.005 to 0.033 ug/ml
[26] = tested on: Clonostachys rosea; assay: Toxicity against Bionectria ochroleuca assessed as inhibition of conidial germination at 0.005 to 0.033 ug/ml
[27] = tested on: Clonostachys rosea; assay: Toxicity against Bionectria ochroleuca assessed as inhibition of mycelial growth at 0.9 to 1.13 mg/ml measured every 24 hr intervals over 192 hr
[28] = tested on: Clonostachys rosea; assay: Toxicity against Bionectria ochroleuca assessed as inhibition of conidial germination at 0.9 to 1.13 mg/ml measured every 24 hr intervals over 192 hr
[29] = tested on: Clonostachys rosea; assay: Toxicity against Bionectria ochroleuca assessed as inhibition of conidial germination at 0.25 to 1.50 mg/ml measured every 24 hr intervals over 192 hr
[30] = tested on: Clonostachys rosea; assay: Toxicity against Bionectria ochroleuca assessed as inhibition of mycelial growth at 0.25 to 1.50 mg/ml measured every 24 hr intervals over 192 hr
[31] = tested on: Clonostachys rosea; assay: Toxicity against Bionectria ochroleuca I62 assessed as inhibition of conidial germination at 0.25 to 1.50 mg/ml measured every 24 hr intervals over 192 hr
[32] = tested on: Clonostachys rosea; assay: Toxicity against Bionectria ochroleuca I61 assessed as inhibition of conidial germination at 0.25 to 1.50 mg/ml measured every 24 hr intervals over 192 hr
[33] = tested on: Clonostachys rosea; assay: Toxicity against Bionectria ochroleuca I61 assessed as inhibition of mycelial growth at 0.25 to 1.50 mg/ml measured every 24 hr intervals over 192 hr
[34] = tested on: Clonostachys rosea; assay: Toxicity against Bionectria ochroleuca I19 assessed as inhibition of mycelial growth at 0.25 to 1.50 mg/ml measured every 24 hr intervals over 192 hr
[35] = tested on: Clonostachys rosea; assay: Toxicity against Bionectria ochroleuca I62 assessed as inhibition of mycelial growth at 0.25 to 1.50 mg/ml measured every 24 hr intervals over 192 hr
[36] = tested on: Clonostachys rosea; assay: Toxicity against Bionectria ochroleuca I60 assessed as inhibition of mycelial growth at 0.25 to 1.50 mg/ml measured every 24 hr intervals over 192 hr
[37] = tested on: Clonostachys rosea; assay: Toxicity against Bionectria ochroleuca assessed as inhibition of conidial germination at 0.12 to 0.75 mg/ml measured every 24 hr intervals over 192 hr
[38] = tested on: Clonostachys rosea; assay: Toxicity against Bionectria ochroleuca assessed as inhibition of mycelial growth at 0.12 to 0.75 mg/ml measured every 24 hr intervals over 192 hr
[39] = tested on: Clonostachys rosea; assay: Toxicity against Bionectria ochroleuca assessed as inhibition of mycelial growth at 0.011 to 0.066 mg/ml
[40] = tested on: Clonostachys rosea; assay: Toxicity against Bionectria ochroleuca assessed as inhibition of conidial germination at 0.011 to 0.066 mg/ml
[41] = tested on: Clonostachys rosea; assay: Toxicity against Bionectria ochroleuca assessed as inhibition of conidial germination at 0.006 to 0.037 ug/ml measured every 24 hr intervals over 192 hr
[42] = tested on: Clonostachys rosea; assay: Toxicity against Bionectria ochroleuca I62 assessed as inhibition of mycelial growth at 0.006 to 0.037 mg/ml measured every 24 hr intervals over 192 hr
[43] = tested on: Clonostachys rosea; assay: Toxicity against Bionectria ochroleuca assessed as inhibition of mycelial growth at 0.006 to 0.037 ug/ml measured every 24 hr intervals over 192 hr
[44] = tested on: Clonostachys rosea; assay: Toxicity against Bionectria ochroleuca I19 assessed as inhibition of mycelial growth at 0.006 to 0.037 mg/ml measured every 24 hr intervals over 192 hr
[45] = tested on: Clonostachys rosea; assay: Toxicity against Bionectria ochroleuca I61 assessed as inhibition of mycelial growth at 0.006 to 0.037 mg/ml measured every 24 hr intervals over 192 hr
[46] = tested on: Clonostachys rosea; assay: Toxicity against Bionectria ochroleuca I60 assessed as inhibition of mycelial growth at 0.006 to 0.037 mg/ml measured every 24 hr intervals over 192 hr
[47] = tested on: Clonostachys rosea; assay: Toxicity against Bionectria ochroleuca I60 assessed as inhibition of conidial germination at 0.12 to 0.75 mg/ml measured every 24 hr intervals over 192 hr
[48] = tested on: Clonostachys rosea; assay: Toxicity against Bionectria ochroleuca I61 assessed as inhibition of conidial germination at 0.12 to 0.75 mg/ml measured every 24 hr intervals over 192 hr
[49] = tested on: Clonostachys rosea; assay: Toxicity against Bionectria ochroleuca I62 assessed as inhibition of conidial germination at 0.12 to 0.75 mg/ml measured every 24 hr intervals over 192 hr
[50] = tested on: Clonostachys rosea; assay: Toxicity against Bionectria ochroleuca I19 assessed as inhibition of conidial germination at 0.12 to 0.75 mg/ml measured every 24 hr intervals over 192 hr
[51] = tested on: Clonostachys rosea; assay: Toxicity against Bionectria ochroleuca assessed as inhibition of mycelial growth at 0.009 to 0.055 ug/ml
[52] = tested on: Clonostachys rosea; assay: Toxicity against Bionectria ochroleuca assessed as inhibition of conidial germination at 0.009 to 0.055 ug/ml

SMILES: CC[C@H](C)[C@H]1O[C@]2(C=C[C@@H]1C)C[C@@H]1C[C@@H](C/C=C(\C)[C@@H](O[C@H]3C[C@H](OC)[C@@H](O[C@H]4C[C@H](OC)[C@@H](O)[C@H](C)O4)[C@H](C)O3)[C@@H](C)/C=C/C=C3\CO[C@@H]4[C@H](O)C(C)=C[C@@H](C(=O)O1)[C@]34O)O2.CO[C@H]1C[C@H](O[C@H]2[C@H](C)O[C@@H](O[C@@H]3/C(C)=C/C[C@@H]4C[C@@H](C[C@]5(C=C[C@H](C)[C@@H](C(C)C)O5)O4)OC(=O)[C@@H]4C=C(C)[C@@H](O)[C@H]5OC/C(=C\C=C\[C@@H]3C)[C@]54O)C[C@@H]2OC)O[C@@H](C)[C@@H]1O [ABAMECTIN]
- growth inhibition (GI) [1]: 9.64%
- growth inhibition (GI) [2]: 6.51%
- growth inhibition (GI) [3]: 9.79%
- growth inhibition (GI) [4]: 0.5%
- growth inhibition (GI) [5]: 5.79%
- inhibition (INH) [6]: 1%

SMILES: O=C1C2CC=CCC2C(=O)N1SC(Cl)(Cl)Cl (centres undefined) [CAPTAN]
- growth inhibition (GI) [7]: 75%
- growth inhibition (GI) [8]: 81.8%
- growth inhibition (GI) [9]: 86.2%
- growth inhibition (GI) [10]: 82.2%
- growth inhibition (GI) [11]: 81.8%
- inhibition (INH) [12]: 61%

SMILES: CC1(C)C(C(=O)OC(C#N)c2cccc(Oc3ccccc3)c2)C1(C)C (centres undefined) [FENPROPATHRIN]
- growth inhibition (GI) [13]: 7.16%
- growth inhibition (GI) [14]: 10.77%
- inhibition (INH) [15]: 9.9%
- inhibition (INH) [16]: 10.7%
- growth inhibition (GI) [17]: 1%
- inhibition (INH) [18]: 12.7%
- growth inhibition (GI) [19]: 8.18%
- growth inhibition (GI) [20]: 3.93%
- inhibition (INH) [21]: 10.1%
- inhibition (INH) [22]: 6%

SMILES: CCCCOC(=O)[C@@H](C)Oc1ccc(Oc2ccc(C(F)(F)F)cn2)cc1 [FLUAZIFOP-P-BUTYL]
- inhibition (INH) [23]: 2.2%
- growth inhibition (GI) [24]: 3.6%

SMILES: O=C(O)CNCP(=O)(O)O [GLYPHOSATE]
- growth inhibition (GI) [25]: 3.6%
- inhibition (INH) [26]: 2.2%

SMILES: CC(C)NC(=O)N1CC(=O)N(c2cc(Cl)cc(Cl)c2)C1=O [IPRODIONE]
- growth inhibition (GI) [27]: 79%
- inhibition (INH) [28]: 55%

SMILES: CCOC(=O)CC(SP(=S)(OC)OC)C(=O)OCC (centres undefined) [MALATHION]
- inhibition (INH) [29]: 10%
- growth inhibition (GI) [30]: 22%
- inhibition (INH) [31]: 14.9%
- inhibition (INH) [32]: 12.7%
- growth inhibition (GI) [33]: 32.67%
- growth inhibition (GI) [34]: 36.87%
- growth inhibition (GI) [35]: 29.32%
- growth inhibition (GI) [36]: 34.59%

SMILES: CC12CC1(C)C(=O)N(c1cc(Cl)cc(Cl)c1)C2=O (centres undefined) [PROCYMIDONE]
- inhibition (INH) [37]: 59%
- growth inhibition (GI) [38]: 66%

SMILES: CCc1cccc(C)c1N(C(=O)CCl)[C@@H](C)COC [S-METOLACHLOR]
- growth inhibition (GI) [39]: 3.6%
- inhibition (INH) [40]: 2.2%

SMILES: CN1COCN(Cc2cnc(Cl)s2)/C1=N\[N+](=O)[O-] [THIAMETHOXAM]
- inhibition (INH) [41]: 1%
- growth inhibition (GI) [42]: 1.82%
- growth inhibition (GI) [43]: 0.1%
- growth inhibition (GI) [44]: 0.36%
- growth inhibition (GI) [45]: 0.51%
- growth inhibition (GI) [46]: 2.65%

SMILES: COC(=O)NC(=S)Nc1ccccc1NC(=S)NC(=O)OC [THIOPHANATE METHYL]
- inhibition (INH) [47]: 37.4%
- inhibition (INH) [48]: 39.4%
- inhibition (INH) [37]: 31%
- inhibition (INH) [49]: 69.3%
- growth inhibition (GI) [38]: 90%
- inhibition (INH) [50]: 40.8%

SMILES: CCCN(CCC)c1c([N+](=O)[O-])cc(C(F)(F)F)cc1[N+](=O)[O-] [TRIFLURALIN]
- growth inhibition (GI) [51]: 3.6%
- inhibition (INH) [52]: 2.2%
